From patent US9108905B2, “TRPA1 antagonists” (AbbVie Inc., priority 2008, dated 2015) come the findings set out here.

The target in one data set is Human TRPA1 (Homo sapiens (Human), UniProt O75762). As to the kind of experiment: FLIPR based intracellular Ca2+ assay and membrane potential assay, inhibition of AITC-activated TRPA1. It counts as cell-based. The settings on record: Table 1, AITC as agonist, HEK293-F cells transiently expressing human TRPA1. As to the method: Molecular biology and transient expression were performed as described in Chen, J. et al., Journal of Biomolecular Screening 2007, 12, 61-69. Briefly, TRPA1 full length cDNA was amplified from human dorsal root ganglia total RNA (BD Bioscience Clontech, Palo Alto, Calif., USA) and was cloned into pcDNA3.1/V5-His Topo vector (Invitrogen, Carlsbad, Calif.). Large scale transient transfection was performed using the FreeStyle™ 293 Expression System as recommended by the manufacturer (Invitrogen). HEK293-F cells were grown in suspension in flasks (cell volume 30 mL to 1 liter) or in a Wave Bioreactor (Wave Biotech, Somerset, N.J.) (6 liters). To support high density, suspension culture and transfection, cells were cultured in FreeStyle 293 media, an optimized, serum free formulation. 293fectin™ (Invitrogen) was used as transfection reagent. In a transfection of 3×10^7 cells (30 mL volume), 30 μg of plasmid DNA and 40 μL 293 fectin were used. For a larger volume transfection, each reagent was scaled up proportionally. Two days post-transfection, cells were harvested by centrifugation (1000×g, 5 minutes) and resuspended to a density of 1.5×10^7 cells/mL in freezing medium (Freestyle media/10% serum/10% DMSO). Cells were transferred into cryovials in 2 mL aliquots, and these vials were placed in Nalgene Mr. Frosty slow-freeze devices (Sigma-Aldrich, St. Louis, Mo.) at −80° C. As needed, vials were removed from −80° C. and quickly thawed in a 37° C. water bath. Cells were aseptically transferred into conical tubes containing Freestyle media (10 mL/vial). After centrifugation at 1,000×g for 3-5 minutes, medium was removed by aspiration and cells were resuspended in Freestyle medium at desired densities (typically 1×10^6 cells/mL). Re-suspended cells were seeded into black-walled clear-bottom 96-well Biocoat™ poly-D-lysine assay plates (BD Biosciences, Bedford, Mass.)(10^5 cells/well) and incubated overnight at 37° C. under a humidified 5% CO2 atmosphere.
Sequence of Human TRPA1 (O75762 whole entry): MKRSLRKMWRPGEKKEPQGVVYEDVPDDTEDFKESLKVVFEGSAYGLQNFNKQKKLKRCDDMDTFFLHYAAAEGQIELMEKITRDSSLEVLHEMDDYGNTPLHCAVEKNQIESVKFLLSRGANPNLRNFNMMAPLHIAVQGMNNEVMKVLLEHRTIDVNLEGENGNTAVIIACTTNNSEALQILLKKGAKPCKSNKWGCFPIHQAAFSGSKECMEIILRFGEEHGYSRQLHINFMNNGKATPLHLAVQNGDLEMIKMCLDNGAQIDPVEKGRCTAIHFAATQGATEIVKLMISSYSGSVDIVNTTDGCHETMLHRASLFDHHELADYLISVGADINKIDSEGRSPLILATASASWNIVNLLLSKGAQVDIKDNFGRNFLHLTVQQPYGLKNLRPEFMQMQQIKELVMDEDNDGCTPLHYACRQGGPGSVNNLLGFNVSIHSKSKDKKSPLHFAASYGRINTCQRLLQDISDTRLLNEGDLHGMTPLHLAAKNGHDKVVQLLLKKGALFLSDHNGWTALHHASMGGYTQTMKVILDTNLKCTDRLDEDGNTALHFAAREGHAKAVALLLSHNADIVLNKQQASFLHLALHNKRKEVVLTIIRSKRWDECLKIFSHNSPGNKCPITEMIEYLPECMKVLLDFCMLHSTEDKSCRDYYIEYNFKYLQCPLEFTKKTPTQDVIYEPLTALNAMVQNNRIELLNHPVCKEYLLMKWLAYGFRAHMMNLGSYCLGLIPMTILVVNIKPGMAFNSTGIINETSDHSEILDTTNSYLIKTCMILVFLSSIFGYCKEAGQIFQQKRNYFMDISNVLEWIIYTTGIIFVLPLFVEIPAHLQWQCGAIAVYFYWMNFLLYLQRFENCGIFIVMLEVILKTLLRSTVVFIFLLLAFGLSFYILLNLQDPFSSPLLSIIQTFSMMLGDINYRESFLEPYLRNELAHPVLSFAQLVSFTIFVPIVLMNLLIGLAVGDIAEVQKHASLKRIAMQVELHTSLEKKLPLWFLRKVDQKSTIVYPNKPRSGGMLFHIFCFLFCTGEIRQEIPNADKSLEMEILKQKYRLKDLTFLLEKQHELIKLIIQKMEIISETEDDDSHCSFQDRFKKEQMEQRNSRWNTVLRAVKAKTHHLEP
FLIPR Based Intracellular Ca^2+ Assay and Membrane Potential Assay
Ca^2+ influx was measured using a FLIPR calcium assay kit (R8033; Molecular Devices, Sunnyvale, Calif.). The Ca^2+ indicator dye was dissolved in Hanks' balanced salt solution supplemented with 20 mM HEPES buffer (HBSS/HEPES) according to the manufacturer instructions. […] (4×) solutions of the test compounds were prepared in HBSS/HEPES, and 50 μL were added to the cells at a delivery rate of 10 μL/sec. Changes in fluorescence were measured over time in a fluorometric imaging plate reader (FLIPR, Molecular Devices). Two additions were made over the course of an experimental run. For agonist experiments, assay buffer was added at the 10 s time point, followed by addition of agonist at the 3 minute 10 sec time point. For antagonist experiments, the antagonist was added at the 10 sec time point, followed by addition of the agonist 3 minutes later. Final assay volume for both the agonist and antagonist experiments was 200 μL. Total length of an experimental run was 6.5 minutes.
Data was analyzed with GraphPad Prism® software (GraphPad Software, San Diego, Calif.), using a four-parameter logistic Hill equation to curve-fit concentration-effect data and derive EC50 or IC50 values. Numerical values are reported as mean±SEM (n=number of experiments). SEM is calculated by dividing the standard deviation by the square root of the sample size […].
Changes in membrane potential were measured in hTRPA1-expressing LSTT cells using a FLIPR membrane potential assay kit (R8034, Molecular Devices). The procedure for thawing and plating the LSTT cells was identical to the Ca^2+ influx assay (see above). The membrane potential dye was dissolved in HBSS/HEPES buffer according to the manufacturer's instructions, and then cells were loaded with dye (100 μL/well) for 45 minutes to 2 hours at room temperature.

Data set [1] is described as follows: Pharmacokinetics after oral dose in fasted male Sprague-Dawley rats (plasma and brain). It counts as in vivo. The settings on record: rat. As to the method: Groups of three fasted male Sprague-Dawley rats received a 10 μmol/kg ([…]) oral dose of the test compound, administered by gavage. The compounds were prepared as a solution in a 10% DMSO/poly(ethylene glycol)-400 (v/v). Blood samples were obtained from each animal at various time points up to eight hours after dosing.
Test compound was selectively extracted from plasma and brain homogenate using liquid-liquid extraction with tert-butylmethylether. The compounds of interest were separated from co-extracted contaminants on a 50×3 mm, Luna CN column (Phenomenex), with an acetonitrile:0.1% aqueous trifluoroacetic acid mobile phase at a flow rate of 0.35 ml/min. Plasma concentrations were determined by HPLC-MS/MS on an API2000 with Turbo Ion Spray interface, with MRM detection in the positive ionization mode. To calibrate compound concentration, a separate portion of each tissue sample was spiked with a known quantity of test compound and analyzed simultaneously with the samples.

Data set [2] is described as follows: Plasma concentration measured in the osteoarthritis grip force model. It is filed as in vivo, rats. From the text:
(§1) FIG. 1—depicts the effect of Example 1 on hindlimb grip force in osteoarthritic rats measurement system (Columbus Instruments, Columbus, Ohio). […] During testing, each rat was gently restrained by grasping around its rib cage and then allowed to grasp the wire mesh frame (10-12 cm^2) attached to the strain gauge. The experimenter then moved the animal in a rostral-to-caudal direction until the grip was broken. Each rat was sequentially tested twice at approximately 2-minute interval to obtain a raw mean grip force (CFmax). This raw mean grip force data was in turn converted to a maximum hind limb compressive force (CFmax) (gram force) per kg body weight for each animal. A group of age matched naïve animals was added to each experiment and the data obtained from the different dose groups for the compound being tested were compared to the naïve group. […] At the 100 μmol/kg dose in the osteoarthritis grip force model, the measured plasma concentration of Example 1 was 6.2 μM.

The next data set deals with osteoarthritic rats. The experiment in a line: Effects on hind limb grip force in MIA-induced osteoarthritic rats. It counts as in vivo. As for the experimental part:
Unilateral knee joint osteoarthritis was induced in the rats by a single intra-articular (i.a.) injection of sodium monoiodoacetate (MIA) (Sigma, St. Louis, Mo.) (3 mg in 0.05 mL sterile isotonic saline) into the joint cavity using a 26G needle under light (2-4%) halothane (Halocarbon Laboratories, River Edge, N.J.) anesthesia. Following injection, the animals were allowed to recover from the effects of anesthesia (usually 5-10 minutes) before returning them to their home cages. Animals were tested 21 days after MIA injection. Measurements of peak hind limb grip force were conducted by recording the maximum compressive force exerted on the hind limb strain gauge setup, in a commercially available grip force
as §1, with “(CFmax).” for “(CFmax). This raw mean grip force data was in turn converted to a maximum hind limb compressive force (CFmax) (gram force) per kg body weight for each animal. A group of age matched naïve animals was added to each experiment and the data obtained from the different dose groups for the compound being tested were compared to the naïve group.”

One may read the IC50 as the concentration that inhibits the measured activity by half. Higher therefore signals weaker potency in that assay. Compound `CCCC(=N\O)/C(C)=C/c1ccc(F)cc1` [Example 4, (1E,3E)-1-(4-fluorophenyl)-2-methylhex-1-en-3-one oxime] had an IC50 on Human TRPA1 of 0.5 µM.

At Human TRPA1, `CCCCC(=N\O)/C(C)=C/c1ccc(F)cc1` [Example 6, (1E,3E)-1-(4-fluorophenyl)-2-methylhept-1-en-3-one oxime] gave an IC50 of 4.4 µM.

In turn, `CCC(=N\O)/C(C)=C/c1ccc(F)c(F)c1` [Example 14, (1E,3E)-1-(3,4-difluorophenyl)-2-methylpent-1-en-3-one oxime] gave an IC50 on Human TRPA1 of 0.574 µM.

The compound `CCC(=N\O)/C(C)=C/c1ccc(F)c(Cl)c1` [Example 9, (1E,3E)-1-(3-chloro-4-fluorophenyl)-2-methylpent-1-en-3-one oxime] yielded an IC50 at Human TRPA1 of 6 µM.

Consider `CCCCC(/C=C/c1ccc(F)cc1)=N\O` [Example 16, (1E,3E)-1-(4-fluorophenyl)hept-1-en-3-one oxime], for which, on Human TRPA1, the IC50 is above 100 µM.

Turning to `CCC(=N\O)/C(C)=C/c1ccc(F)c(C)c1` [Example 17, (1E,3E)-1-(4-fluoro-3-methylphenyl)-2-methylpent-1-en-3-one oxime], on Human TRPA1, the IC50 is above 100 µM.

`CCC(=N\O)/C(C)=C/c1ccc(F)c(C(F)(F)F)c1` [Example 18, (1E,3E)-1-[4-fluoro-3-(trifluoromethyl)phenyl]-2-methylpent-1-en-3-one oxime] returned an IC50 on Human TRPA1 above 100 µM.

`CC(/C=C/c1ccc(F)cc1)=N\O` [Example 11, (2E,3E)-4-(4-fluorophenyl)but-3-en-2-one oxime] showed an IC50 on Human TRPA1 of 20.6 µM.

In the case of `CC(=C\c1ccc(F)cc1)/C(=N\O)C(C)C` [Example 7, (1E,3Z)-1-(4-fluorophenyl)-2,4-dimethylpent-1-en-3-one oxime], on Human TRPA1, the IC50 stood at 0.85 µM.

The compound “(1E,3E)-1-(4-fluorophenyl)pent-1-en-3-one oxime and (1E,3Z)-1-(4-fluorophenyl)pent-1-en-3-one oxime, about 1:1 mixture [Example 13]” came in with an IC50 at Human TRPA1 of 9.46 µM.

In turn, `CCC(=N\O)/C(C)=C/c1ccccc1F` [Example 3, (1E,3E)-1-(2-fluorophenyl)-2-methylpent-1-en-3-one oxime] yielded an IC50 at Human TRPA1 of 4.6 µM.

At Human TRPA1, `CC(=C\c1ccc(F)cc1)/C(=N/O)C(C)C` [Example 8, (1E,3E)-1-(4-fluorophenyl)-2,4-dimethylpent-1-en-3-one oxime] gave an IC50 of 3.3 µM. This IC50 and that of the compound before are within 1.5-fold of each other.

Consider `CC(=C\c1ccc(F)cc1)/C(=N/O)C(C)(C)C` [Example 5, (1E,3E)-1-(4-fluorophenyl)-2,4,4-trimethylpent-1-en-3-one oxime], for which the IC50 on Human TRPA1 amounted to 8 µM.

By Cmax is commonly meant the peak of the concentration-time curve. What is called Kp is the ratio of the level in a tissue or fluid to that in plasma or blood. For orientation: bioavailability means dose-corrected exposure relative to a reference, in per cent. A higher bioavailability goes with much systemic uptake. As a reminder, the ED50 is the midpoint of the dose-response relation. `CCC(=N\O)/C(C)=C/c1ccc(F)cc1` [Example 1, (1E,3E)-1-(4-fluorophenyl)-2-methylpent-1-en-3-one oxime]: in data set [1] (10 umol/kg, oral, plasma), the Cmax was found to be 720 nM. Moreover, in data set [1] (brain and plasma, 10 μmol/kg, after oral administration, text calls it brain/plasma ratio), the Kp is 1.2. In data set [1] (plasma, 10 umol/kg, oral gavage, solution in 10% DMSO/PEG-400), this compound came in with a bioavailability of 38%. This compound registered a measured plasma concentration in data set [2] (100 μmol/kg oral dose, osteoarthritis grip force model) of 6.2 µM. Also, the “plasma and brain exposure” value in data set [2] (with increasing oral dose, rat) is “excellent plasma and brain exposure”. The ED50 in the data set with osteoarthritic rats (Rattus norvegicus, po, 21 days after MIA injection, 95% CI 79-158 μmol/kg, read-out: ED50, hindlimb grip force) is 112 µmol/kg. Also, in the data set on osteoarthritic rats (p.o.), the “efficacy in osteoarthritis grip force model” value is “fully efficacious”.

In the case of `CCC(=N\O)/C(C)=C/c1cc(F)c(F)c(F)c1` [Example 15, (1E,3E)-2-methyl-1-(3,4,5-trifluorophenyl)pent-1-en-3-one oxime], the IC50 on Human TRPA1 is 4.67 µM.

In the case of `CCCC(/C=C/c1ccc(F)cc1)=N\O` [Example 12, (1E,3E)-1-(4-fluorophenyl)hex-1-en-3-one oxime], the IC50 on Human TRPA1 stood at 5.91 µM.
